In patent publication US11090319B2, “Therapeutic uses of pharmaceutical compositions comprising cyclic boronic acid ester derivatives” (Melinta Subsidiary Corp., priority 2010, dated 2021):
Read-outs that look alike come from different tables or passages of the source.

Tests used:
[1] = Single dose pharmacokinetics and oral bioavailability in rats, Table 15; type: in vivo, Sprague-Dawley (SD) rats
Method: An in vivo model can be used to evaluate the single dose pharmacokinetic properties and absolute oral bioavailability of a test compound. As described more specifically below, a test compound is administered to Sprague-Dawley (SD) rats either intravenously or orally in a crossover study design and the resulting pharmacokinetic properties and oral bioavailability are measured. […] Plasma samples (0.3 ml) were collected from jugular vein cannula at 0.17, 0.33, 0.47, 0.58, 0.68, 0.75, 1, 2, 3, 4, and 6 hrs after the dosing. […] The samples were mixed and centrifuged for 30 min at 3000×g. 150 μL of supernatant was removed and added to 450 μL of water. HPLC-mass spectrometry: An Agilent 1100HPLC pump, HTC PAL autosampler and a Sciex […] mass spectrometer were used for separation and quantification. Compound 62 and its internal standard were detected using +ESI. Compound 5 and its internal standard were detected using -ESI. LC/MS/MS: 1) Column: Chromolith FastGradient RP-18e, 50×2 mm; 2) Mobile phase A: Aqueous Water with 0.1% TFA, Orgainic phase B: Acetonitrile with 0.1% TFA; Flow Rate: 600 μL/min; Injection volume: 10 μL; […] Plasma concentrations were modeled using WinNonlin® (Pharsight Corp, Mountain View, Calif.). In this experiment, three male Sprague Dawley rats were given Compound 5 by intravenous or oral route. At designated time points, bloods were collected and analyzed. […] Plasma samples were collected at designated time points and analyzed for the presence of Compound 5. […] Male rats (non-fasted) were orally administered 50 mg/kg of the prodrug Compound 62.

KPC-3, lysate of EC1007 = KPC-3, lysate of EC1007 (Klebsiella pneumoniae, UniProt Q9F663, H272Y); experiment: Inhibition of biapenem hydrolysis by bacterial lysate
Chain of KPC-3, lysate of EC1007 (Q9F663 whole entry H272Y, looked up): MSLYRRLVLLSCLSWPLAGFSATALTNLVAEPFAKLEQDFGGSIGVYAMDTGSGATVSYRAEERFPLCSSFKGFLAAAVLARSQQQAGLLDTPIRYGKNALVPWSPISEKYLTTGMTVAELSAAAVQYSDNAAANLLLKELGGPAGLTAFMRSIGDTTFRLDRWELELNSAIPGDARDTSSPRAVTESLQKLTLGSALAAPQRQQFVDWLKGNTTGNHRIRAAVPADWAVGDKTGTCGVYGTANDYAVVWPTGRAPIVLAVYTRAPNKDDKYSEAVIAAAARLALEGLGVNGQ

| SMILES | half-life ([1]; Sprague-Dawley, rat, plasma, male SD rats, IV, 20 mg/kg) | half-life ([1]; Sprague-Dawley, rat, plasma, male SD rats, PO, 50 mg/kg) | AUC ([1]; Sprague-Dawley, rat, plasma, male SD rats, PO, 50 mg/kg, read-out: AUC) | CL/F ([1]; Sprague-Dawley, rat, plasma, male SD rats, PO, 50 mg/kg, read-out: CL/F (converted)) | Cmax ([1]; Sprague-Dawley, rat, plasma, male SD rats, PO, 50 mg/kg, read-out: Cmax) | AUC ([1]; male SD rats, IV, 20 mg/kg) | CL/F ([1]; male SD rats, IV, 20 mg/kg) | Cmax ([1]; male SD rats, IV, 20 mg/kg) | AUC ([1]; male SD rats, IV, 50 mg/kg) | CL/F ([1]; male SD rats, IV, 50 mg/kg) | Cmax ([1]; male SD rats, IV, 50 mg/kg) | T1/2 ([1]; male SD rats, IV, 50 mg/kg) | oral absorption ([1]; rats, 50 mg/kg orally in saline) | PK linearity ([1]; rats, intravenous 20 or 50 mg/kg) | IC50 (KPC-3, lysate of EC1007) |
| --- | --- | --- | --- | --- | --- | --- | --- | --- | --- | --- | --- | --- | --- | --- | --- |
| O=C(O)C[C@@H]1CC[C@H](NC(=O)Cc2cccs2)B(O)O1 [Compound 5, 2-((3R,6S)-2-hydroxy-3-(2-(thiophen-2-yl)acetamido)-1,2-oxaborinan-6-yl)acetic acid] | 93.6 min | 93 min | 0.81 mg·h/L | 60.4 L/h/kg | 0.29 mg/L | 12.15 mg·h/L | 1.65 L/h/kg | 19.82 mg/L | 28.19 mg·h/L | 1.77 L/h/kg | 45.93 mg/L | 4.53 h | not orally absorbed | linear PK |  |
| Cl.N[C@H]1CCC(CC(=O)O)OB1O (stereo partly drawn) [Compound 7, 2-((3R)-3-amino-2-hydroxy-1,2-oxaborinan-6-yl)acetic acid hydrochloride] |  |  |  |  |  |  |  |  |  |  |  |  |  |  | > 4.77 µM |
